# Measurements reported in patent US5698411A, “Method for determining activity of enzymes in metabolically active whole cells” (priority 1995, dated 1997).
# Columns and labels:
# Format in all cases: cell-based, human
# lymphocytes [1] = test: peptidase activity in leukemia and non-leukemia patients, lymphocytes (Table 6C); design: unit not given here
# From the text: (§1) Artificial intelligence was used to analyze data of cellular enzyme functions, and determine normal and disease states. Peptidases were used to distinguish leukemia from non-leukemia (output pattern). For input patterns lymphocyte and granulocyte cell types were used with aminopeptidases, cathepsins and dipeptidylpeptidase enzyme activities. In this Example, illustrated in Tables 6A-6C, three normals and three leukemia patients were used as known output patterns for the neural network to learn (in practice, the larger the learning set the more accurate unknown prediction will be). Unknowns were then presented to the learned algorithm as shown in the test case examples. Clinical diagnosis was confirmed by physicians. The trained neural network was able to correctly classify the leukemia from the non-leukemia.
# granulocytes [2] = test: peptidase activity in leukemia and non-leukemia patients, granulocytes (Table 6C); design: unit not given here
# From the text: as §1
# lymphocytes [3] = test: aberrant enzyme activities in febrile children, lymphocytes (Table 7)
# monocytes = test: aberrant enzyme activities in febrile children, monocytes (Table 7)
# granulocytes [4] = test: aberrant enzyme activities in febrile children, granulocytes (Table 7)
smiles,measurement,setting,value
"NCC(=O)N1CCC[C@H]1C(=O)Nc1ccc2c(c1)Oc1cc(NC(=O)[C@@H]3CCCN3C(=O)CN)ccc1C21OC(=O)c2ccccc21 [GP, (H-Gly--Pro)2 Rho .2TFA]","enzyme activity, Lymphs",lymphocytes [1]; J4 11/21/91 acute leuk.,2.72
same,"enzyme activity, Lymphs",lymphocytes [1]; J4 12/2/91 A L,3.80
same,"enzyme activity, Lymphs",lymphocytes [1]; J4 12/3/91 acute leuk.,4.17
same,"enzyme activity, Lymphs",lymphocytes [1]; J5 11/27/91 A M L,3.40
same,"enzyme activity, Lymphs",lymphocytes [1]; J19 11/27/91 C L L,1.73
same,"enzyme activity, Lymphs",lymphocytes [1]; J22 12/2/91 A M L,1.73
same,"enzyme activity, Lymphs",lymphocytes [1]; J22 12/9/91 A M L,3.01
same,"enzyme activity, Lymphs",lymphocytes [1]; N191 normal,4.14
same,"enzyme activity, Lymphs",lymphocytes [1]; N192 normal,3.00
same,"enzyme activity, Lymphs",lymphocytes [1]; N193 normal,3.00
same,"enzyme activity, Lymphs",lymphocytes [1]; N194 normal,5.22
same,"enzyme activity, Lymphs",lymphocytes [1]; N195 normal,5.24
same,"enzyme activity, Lymphs",lymphocytes [1]; N197 normal,5.97
same,"enzyme activity, Lymphs",lymphocytes [1]; N199 normal,5.55
same,"enzyme activity, Lymphs",lymphocytes [1]; N200 normal,5.38
same,"enzyme activity, Lymphs",lymphocytes [1]; N201 normal,6.53
same,"enzyme activity, Lymphs",lymphocytes [1]; N202 normal,6.61
same,"enzyme activity, Lymphs",lymphocytes [1]; N206 normal,7.09
same,"enzyme activity, Lymphs",lymphocytes [1]; P68 tachycardia,5.92
same,"enzyme activity, Lymphs",lymphocytes [1]; P69 pancreatic CA,6.80
same,"enzyme activity, Lymphs",lymphocytes [1]; P70 cirrhosis/hemobilia,6.68
same,"enzyme activity, Lymphs",lymphocytes [1]; P71 ac. pyelonephritis,3.55
same,"enzyme activity, Grans",granulocytes [2]; J4 11/21/91 acute leuk.,10.75
same,"enzyme activity, Grans",granulocytes [2]; J4 12/2/91 A L,11.08
same,"enzyme activity, Grans",granulocytes [2]; J4 12/3/91 acute leuk.,1.28
same,"enzyme activity, Grans",granulocytes [2]; J5 11/27/91 A M L,8.95
same,"enzyme activity, Grans",granulocytes [2]; J19 11/27/91 C L L,1.39
same,"enzyme activity, Grans",granulocytes [2]; J22 12/2/91 A M L,13.98
same,"enzyme activity, Grans",granulocytes [2]; J22 12/9/91 A M L,11.52
same,"enzyme activity, Grans",granulocytes [2]; N191 normal,11.20
same,"enzyme activity, Grans",granulocytes [2]; N192 normal,11.22
same,"enzyme activity, Grans",granulocytes [2]; N193 normal,8.87
same,"enzyme activity, Grans",granulocytes [2]; N194 normal,12.49
same,"enzyme activity, Grans",granulocytes [2]; N195 normal,13.31
same,"enzyme activity, Grans",granulocytes [2]; N197 normal,15.85
same,"enzyme activity, Grans",granulocytes [2]; N199 normal,13.41
same,"enzyme activity, Grans",granulocytes [2]; N200 normal,12.74
same,"enzyme activity, Grans",granulocytes [2]; N201 normal,15.92
same,"enzyme activity, Grans",granulocytes [2]; N202 normal,14.44
same,"enzyme activity, Grans",granulocytes [2]; N206 normal,17.96
same,"enzyme activity, Grans",granulocytes [2]; P68 tachycardia,16.08
same,"enzyme activity, Grans",granulocytes [2]; P69 pancreatic CA,16.21
same,"enzyme activity, Grans",granulocytes [2]; P70 cirrhosis/hemobilia,16.42
same,"enzyme activity, Grans",granulocytes [2]; P71 ac. pyelonephritis,11.07
CC(C)C[C@H](N)C(=O)NCC(=O)Nc1ccc2c(c1)Oc1cc(NC(=O)CNC(=O)[C@@H](N)CC(C)C)ccc1C21OC(=O)c2ccccc21 [LG],"enzyme activity, Lymphs",lymphocytes [1]; J4 11/21/91 acute leuk.,0.16
same,"enzyme activity, Lymphs",lymphocytes [1]; J4 12/2/91 A L,0.18
same,"enzyme activity, Lymphs",lymphocytes [1]; J4 12/3/91 acute leuk.,0.19
same,"enzyme activity, Lymphs",lymphocytes [1]; J5 11/27/91 A M L,0.23
same,"enzyme activity, Lymphs",lymphocytes [1]; J19 11/27/91 C L L,0.02
same,"enzyme activity, Lymphs",lymphocytes [1]; J22 12/2/91 A M L,0.02
same,"enzyme activity, Lymphs",lymphocytes [1]; J22 12/9/91 A M L,0.61
same,"enzyme activity, Lymphs",lymphocytes [1]; N199 normal,0.85
same,"enzyme activity, Lymphs",lymphocytes [1]; P68 tachycardia,0.78
same,"enzyme activity, Lymphs",lymphocytes [1]; P69 pancreatic CA,2.00
same,"enzyme activity, Lymphs",lymphocytes [1]; P70 cirrhosis/hemobilia,0.79
same,"enzyme activity, Lymphs",lymphocytes [1]; P71 ac. pyelonephritis,0.68
same,"enzyme activity, Grans",granulocytes [2]; J4 11/21/91 acute leuk.,0.85
same,"enzyme activity, Grans",granulocytes [2]; J4 12/2/91 A L,0.79
same,"enzyme activity, Grans",granulocytes [2]; N200 normal,3.40
same,"enzyme activity, Grans",granulocytes [2]; N202 normal,2.70
same,"enzyme activity, Grans",granulocytes [2]; P70 cirrhosis/hemobilia,2.20
same,"enzyme activity, Grans",granulocytes [2]; P71 ac. pyelonephritis,4.00
same,"aberrant enzyme activity, LYMPHS",lymphocytes [3]; P92 Adenitis,.smallcircle.
same,"aberrant enzyme activity, LYMPHS",lymphocytes [3]; P97 Pyelonephritis,.smallcircle.
same,"aberrant enzyme activity, LYMPHS",lymphocytes [3]; P102 UTI,.smallcircle.
same,"aberrant enzyme activity, LYMPHS",lymphocytes [3]; P103 Viral Syndrome,.smallcircle.
same,"aberrant enzyme activity, MONOS",monocytes; P92 Adenitis,.smallcircle.
same,"aberrant enzyme activity, MONOS",monocytes; P96 Viral Syndrome,.smallcircle.
same,"aberrant enzyme activity, MONOS",monocytes; P97 Pyelonephritis,.smallcircle.
same,"aberrant enzyme activity, MONOS",monocytes; P101 Fever -- Unknown Origin,.smallcircle.
same,"aberrant enzyme activity, MONOS",monocytes; P103 Viral Syndrome,.smallcircle.
same,"aberrant enzyme activity, GRANS",granulocytes [4]; P92 Adenitis,.smallcircle.
same,"aberrant enzyme activity, GRANS",granulocytes [4]; P96 Viral Syndrome,.smallcircle.
same,"aberrant enzyme activity, GRANS",granulocytes [4]; P97 Pyelonephritis,.smallcircle.
same,"aberrant enzyme activity, GRANS",granulocytes [4]; P101 Fever -- Unknown Origin,.smallcircle.
same,"aberrant enzyme activity, GRANS",granulocytes [4]; P102 UTI,.smallcircle.
